In ChEMBL document CHEMBL2429866, “New aminoadamantane derivatives with antiproliferative activity” (Med Chem Res, 2013):

Tests used:
SF-268 = assay: Cytotoxicity against human SF268 cells after 48 hrs by SRB assay; assay type: functional; details: SF-268, 48 h
COLO 205 = assay: Cytotoxicity against human COLO205 cells after 48 hrs by SRB assay; assay type: functional; details: COLO 205, 48 h
DU-145 = assay: Cytotoxicity against human DU145 cells after 48 hrs by SRB assay; assay type: functional; details: DU-145, 48 h
PC-3 = assay: Cytotoxicity against human PC3 cells after 48 hrs by SRB assay; assay type: functional; details: PC-3, 48 h
NCI-H460 = assay: Cytotoxicity against human NCI-H460 cells after 48 hrs by SRB assay; assay type: functional; details: NCI-H460, 48 h
U-251 = assay: Cytotoxicity against human U251 cells after 48 hrs by SRB assay; assay type: functional; details: U-251, 48 h
MCF7 = assay: Cytotoxicity against human MCF7 cells after 48 hrs by SRB assay; assay type: functional; details: MCF7, 48 h
HCT-116 = assay: Cytotoxicity against human HCT116 cells after 48 hrs by SRB assay; assay type: functional; details: HCT-116, 48 h
[1] = Cytotoxicity against human EKVX cells after 48 hrs by SRB assay; assay type: functional
OVCAR-5 = assay: Cytotoxicity against human OVCAR5 cells after 48 hrs by SRB assay; assay type: functional; details: OVCAR-5, 48 h
MDA-MB-231 = assay: Cytotoxicity against human MDA-MB-231 cells after 48 hrs by SRB assay; assay type: functional; details: MDA-MB-231, 48 h
IGROV-1 = assay: Cytotoxicity against human IGROV1 cells after 48 hrs by SRB assay; assay type: functional; details: IGROV-1, 48 h
[2] = Cytotoxicity against human CAKI cells after 48 hrs by SRB assay; assay type: functional
A549 = assay: Cytotoxicity against human A549 cells after 48 hrs by SRB assay; assay type: functional; details: A549, 48 h
[3] = Cytotoxicity against human MSC cells after 48 hrs by SRB assay; assay type: cell-based; details: for GI50 at 48 h: MSC cells; for TGI: msc, 48 h
[4] = Cytotoxicity against human NCI-ADR-RES cells after 48 hrs by SRB assay; assay type: functional
HCT-15 = assay: Cytotoxicity against human HCT15 cells after 48 hrs by SRB assay; assay type: functional; details: HCT-15, 48 h
DMS-114 = assay: Cytotoxicity against human DMS114 cells after 48 hrs by SRB assay; assay type: functional; details: DMS-114, 48 h
SK-MEL-28 = assay: Cytotoxicity against human SK-MEL-28 cells after 48 hrs by SRB assay; assay type: functional; details: SK-MEL-28, 48 h
NHDF = assay: (§1) Cytotoxicity against human NHDF cells after 48 hrs by SRB assay; assay type: cell-based; details: nhdf, 48 h
[5] = as §1; assay type: cell-based; details: NHDF cells
LNCaP = assay: Cytotoxicity against human LNCAP cells after 48 hrs by SRB assay; assay type: functional

SMILES	GI50 (SF-268) [µM]	TGI (SF-268) [µM]	GI50 (NCI-H460) [µM]	TGI (NCI-H460) [µM]	GI50 (U-251) [µM]	TGI (U-251) [µM]	GI50 (MCF7) [µM]	TGI (MCF7) [µM]	GI50 (HCT-116) [µM]	TGI (HCT-116) [µM]	also measured
NC1C2CC3CC(C2)CC1(c1ccccc1)C3 (stereo not drawn)	100	100	100	100	100	100	69.3	100	–	–	GI50 (COLO 205): 84.5 µM; TGI (COLO 205): 100 µM; GI50 (DU-145): 100 µM; TGI (DU-145): 100 µM; GI50 (PC-3): 82.9 µM; TGI (PC-3): 89.3 µM
Cl.NC1C2CC3CC(C2)CC1(Cc1ccccc1)C3 (stereo not drawn)	21	56.8	–	–	–	–	5.5	9.5	6.59	35.8	GI50 [1]: 6.94 µM; TGI [1]: 29.2 µM; GI50 (OVCAR-5): 8.35 µM; TGI (OVCAR-5): 37.8 µM; GI50 (COLO 205): 7.12 µM; TGI (COLO 205): 33.2 µM; GI50 (MDA-MB-231): 6.68 µM; TGI (MDA-MB-231): 46.6 µM; GI50 (DU-145): 6.68 µM; TGI (DU-145): 29.8 µM; GI50 (IGROV-1): 7.6 µM; TGI (IGROV-1): 36.5 µM; GI50 [2]: 6.54 µM; TGI [2]: 26.8 µM; GI50 (A549): 8.67 µM; TGI (A549): 43.7 µM; GI50 at 48 h [3]: 9.55 µM; TGI [3]: 45.56 µM; GI50 [4]: 6.7 µM; TGI [4]: 30 µM
Cl.NC1C2CC3CC(C2)CC1(Cc1ccc(F)cc1)C3 (stereo not drawn)	7.83	37.4	13.7	52	21.8	50.9	4.6	8.7	5.6	17.5	GI50 (HCT-15): 19.4 µM; TGI (HCT-15): 53.8 µM; GI50 (DMS-114): 9.38 µM; TGI (DMS-114): 50.4 µM; GI50 (SK-MEL-28): 13.2 µM; TGI (SK-MEL-28): 45 µM; GI50 [4]: 7.4 µM; TGI [4]: 24.4 µM; TGI (NHDF): 52.8 µM; GI50 at 48 h [5]: 17.9 µM
COc1ccc(CC23CC4CC(CC(C4)C2N)C3)cc1.Cl (stereo not drawn)	21.2	50.7	31.2	62.4	31.2	58	7.4	42.3	18.5	52.2	GI50 (HCT-15): 38.8 µM; TGI (HCT-15): 75 µM; GI50 (DMS-114): 40.1 µM; TGI (DMS-114): 73.9 µM; GI50 at 48 h [3]: 24.8 µM; TGI [3]: 56.05 µM; GI50 (SK-MEL-28): 31.8 µM; TGI (SK-MEL-28): 60.7 µM; GI50 [4]: 29.3 µM; TGI [4]: 55.3 µM; TGI (NHDF): 58.8 µM; GI50 at 48 h [5]: 27.7 µM
c1ccc2c(c1)CNC1C3CC4CC(C3)CC21C4 (stereo not drawn)	100	100	100	100	–	–	52	100	63.9	100	–
CN(C)CCNC1C2CC3CC(C2)CC1(Cc1ccccc1)C3 (stereo not drawn)	29.3	57.1	–	–	–	–	25.9	54.1	24	55.9	GI50 (COLO 205): 25.4 µM; TGI (COLO 205): 59.9 µM; GI50 (DMS-114): 26.5 µM; TGI (DMS-114): 58.1 µM; GI50 (LNCaP): 24.4 µM; TGI (LNCaP): 54.7 µM
c1ccc(CC23CC4CC(CC(C4)C2NCCN2CCCCC2)C3)cc1 (stereo not drawn)	13.1	45.9	6.32	32.2	–	–	6.75	33.2	9.94	51.7	–
c1ccc(CC23CC4CC(CC(C4)C2NCCN2CCNCC2)C3)cc1 (stereo not drawn)	22.2	53.6	7.49	46.8	–	–	21.1	52.7	7.02	50	–
CN(C)CCCNC1C2CC3CC(C2)CC1(Cc1ccccc1)C3 (stereo not drawn)	9.09	40.9	5.78	25.8	–	–	9.11	42.9	6.76	34.8	–
c1ccc(CC23CC4CC(CC(C4)C2NCCCN2CCOCC2)C3)cc1 (stereo not drawn)	56.4	100	50.7	100	–	–	28.9	58.5	44	100	–
c1ccc(CC23CC4CC(CC(C4)C2NCCCn2ccnc2)C3)cc1 (stereo not drawn)	28.8	62.8	31.5	67.5	–	–	27	56.1	26.8	64.7	–
N[C@H]1c2ccccc2C23CC4CC(CC(C4)[C@H]12)C3 (relative stereo)	–	–	–	–	31.2	56.2	32.6	62.5	–	–	GI50 (COLO 205): 35 µM; TGI (COLO 205): 69.9 µM; GI50 (DU-145): 26.6 µM; TGI (DU-145): 37.6 µM; GI50 (LNCaP): 28.5 µM; TGI (LNCaP): 61.2 µM
N[C@@H]1c2ccccc2C23CC4CC(CC(C4)[C@H]12)C3 (relative stereo)	–	–	–	–	33	56.6	–	–	–	–	GI50 (DU-145): 31.4 µM; TGI (DU-145): 66.1 µM; GI50 (PC-3): 21.3 µM; TGI (PC-3): 56.7 µM
COc1cc([C@@H]2c3cc4c(cc3[C@@H](O[C@@H]3O[C@@H]5CO[C@@H](C)O[C@H]5[C@H](O)[C@H]3O)[C@H]3COC(=O)[C@H]23)OCO4)cc(OC)c1O [ETOPOSIDE]	4.21	92.7	–	–	–	–	–	–	–	–	–
O=c1[nH]cc(F)c(=O)[nH]1 [FLUOROURACIL]	49.2	> 100	5.95	> 100	–	–	8.4	> 100	9.51	> 100	–
